# Assay results from US9260382B2, “Methods of reducing virulence in bacteria” (priority 2010, dated 2016).
# Key:
# [1] = test system: mrp promoter (reference gene); experiment: GFP reporter plasmid pmrp, flow cytometry (reference gene); format: cell-based, Dickeya dadantii 3937; conditions: for mean fluorescence intensity of GFP, mrp promoter: 3937 (pmrp), MM + 100 μM
# Experimental: FACS analysis of promoter activity of dspE, hrpA, hrpL, hrpN, and hrpS was carried out as described (Peng et al., 2006). Briefly, the wild-type Ech3937 and the mutant strains carrying the promoter reporter plasmid were grown on LB broth at 28° C. overnight and transferred to appropriate media. For FACS analysis, samples were collected by centrifugation, washed with 1× phosphate buffer saline (PBS) at 13,000 rpm for 1 min, and re-suspended in 1×PBS to ca 10^6 CFU/ml prior to being run in a FACS Calibur flow cytometer (BD Biosciences, CA). Three replicates were performed for each treatment.
# Since OCA and TCA induced the expression of hrpN, the effect of these two phenolic compounds on the expression of hrpA, hrpL, and hrpS was investigated further. […] GFP intensity was determined on gated populations of bacterial cells by flow cytometry and analyzed with the Cell Quest software (BD Biosciences, San Jose, Calif.). The lines labeled “1” stand for the GFP expression control base level of the Ech3937 containing pPROBE-AT vector; lines labeled “2” stand for the promoter activity of hrpS, hrpL, hrpA and hrpN in Ech3937 in MM; lines labeled “3” stand for the promoter activity of Ech3937 in MM supplemented with 0.1 mM OCA; lines labeled “4” stand for the promoter activity of hrpL mutant WPP96 in MM; lines labeled “5” stand for the promoter activity of hrpL mutant WPP96 in MM supplemented with 0.1 mM OCA. Values are representative of at least two experiments. […] Compared with MM alone, the average GFP fluorescence intensity of bacterial cells of Ech3937 (phrpA) was doubled when 0.1 mM of OCA and TCA were added to the medium (Table 4; FIG. 3). […] The mrp, whose protein product has an ATPase conserved domain (2e-06), was used as a reference gene in this study.
# hrpA promoter (T3SS) = experiment: hrpA promoter activity assay in DC3000 (GFP, flow cytometry); format: cell-based, Pseudomonas syringae pv. tomato DC3000; conditions: DC3000 (phrpA)
# Experimental: Expression of hrpA was analyzed using a FACS Calibur flow cytometer as previously described (BD Biosciences, CA) (Peng et al. 2006). Wild-type DC3000 carrying the promoter-probe phrpA or pPROBE-NT (vector control) was grown in KB broth overnight and transferred to HIM or HIM supplemented with different compounds as described (Li et al. 2009). The promoter activity of hrpA in DC3000 was monitored by measuring GFP intensity using flow cytometry.
# To determine the maximum concentration of TCA that will inhibit hrpA promoter activity without affecting bacterial growth, DC3000 carrying phrpA was cultured in HIM and HIM supplemented with 25 μM, 50 μM, 100 μM, 250 μM, or 500 μM of TCA. Promoter activity was measured at 6 h and 9 h as mentioned above using flow cytometry. Bacterial growth was determined by withdrawing samples of each culture and spot-plating serial dilutions onto King's B agar (King et al. 1954) in tandem with promoter activity assays. Colonies were counted after 48 h of incubation at 28° C.
# HrpW protein = experiment: HrpW immunoblot analysis; format: cell-based, Pseudomonas syringae pv. tomato DC3000; conditions: HIM supplemented with 250 μM
# Experimental: The HrpW protein level was determined by immunoblot using anti-HrpW antibody provided by Dr. Alan Collmer (Cornell University, Ithaca, N.Y.). Sample preparation was performed as previously described with modifications (Yuan and He 1996). Wild-type DC3000 was grown overnight in King's B medium at 28° C. The culture was washed with hrp-inducing medium (HIM) and resuspended in 40 ml of the same medium to an optical density (OD) at 600 nm of 0.1. To determine the effect of TCA on the HrpW protein level, TCA dissolved in DMSO was added to the culture at the final concentration of 250 μM and the culture was grown with moderate shaking at 28° C. DMSO was added to a separate culture as a negative control. After 9 h, the cells were collected by centrifugation at 4,000×g for 10 min and resuspended in 1 ml of phosphate buffered saline (PBS; 137 mM NaCl, 2.7 mM KCl, 4.3 mM Na2HPO4, and 1.47 mM KH2PO4 [pH 7.4]). […]
# rsmB RNA = experiment: Northern blot analysis of rsmB RNA; format: cell-based, D. dadanti 3937; conditions: bacterial cells cultured in media supplemented with compound (FIG. 23)
# From the text: Northern blot analysis was used to quantify rsmB RNA of D. dadanti 3937.
# HrpN protein = HrpN protein expression (FIG. 15); format: cell-based, Dickeya dadantii 3937; conditions: MM supplemented with 0.1 mM (FIG. 15)
# From the text: To further elucidate whether T3SS gene expression is mainly regulated through the HrpX/Y-HrpS-HrpL regulatory pathway, the expression of hrpA and hrpN in wild-type Ech3937 and hrpX (WPP67), hrpY (WPP92), hrpS (WPP90), and hrpL (WPP96) mutants in MM were examined. […] Similar expression of hrpA and hrpN was observed among WPP67, WPP92, WPP90 and WPP96 carrying phrpA and phrpN grown in MM and MM supplemented with PCA. […] Since PCA represses the expression of several T3SS genes such as hrpN, the effect of PCA on protein production of HrpN was further examined.
smiles,measurement,setting,value
"O=C(O)/C=C/c1ccccc1 [Compound 001, trans-cinnamic acid]","GFP Mean Fluorescence Intensity, mrp promoter (reference gene)","[1]; Ech3937 (pmrp), MM + 0.1 mM compound, 12 h",105 ± 0.3
same,"effect on hrpA promoter activity, in words",hrpA promoter (T3SS); HIM + 25 μM or 50 μM,less substantial effect
same,reduction in hrpA promoter activity,hrpA promoter (T3SS); HIM + 100 μM,3 fold
same,"effect on hrpA promoter activity, in words",hrpA promoter (T3SS); HIM + 250 μM and 500 μM,almost complete repression of hrpA promoter activity
same,"HrpW protein in culture supernatants, immunoblot, in words",HrpW protein,absent from the culture supernatants
same,"HrpW protein in whole cell lysates, immunoblot, in words",HrpW protein,undetectable in the whole cell lysates
"O=C(/C=C/c1ccc(O)cc1)NO [Compound 103, trans-4-Hydroxycinnamohydroxamic acid]","mean fluorescence intensity of GFP, mrp promoter",[1]; 12 h,81.2 ± 0.7
same,"mean fluorescence intensity of GFP, mrp promoter",[1]; 24 h,67.7 ± 2.5
same,"rsmB RNA level, Northern blot, in words",rsmB RNA,reduced rsmB mRNA
"O=C(O)/C=C/c1ccc(O)cc1 [Compound 004, para-coumaric acid]","HrpN protein amount compared with MM alone, in words",HrpN protein,a lower amount of HrpN
